# Reference: patent publication US8999983B2, “Modulators of Hec1 activity and methods therefor” (Taivex Therapeutics Corporation, priority 2011, dated 2015)
# Where two headings read alike, the source gives them in different places.
# Columns and labels:
# [1] = Pharmacokinetics of salt forms, single oral dose; format: in vivo, CD-1 mice; conditions: male, CD-1, mouse, plasma
# Experimental: (§1) Pharmacokinetics of Hec1 Inhibitor Salts: Pharmacokinetic comparison of different salt forms (HCl, tosylate, mesylate salt) was studied for the compounds as shown in Table 3 below:
# (§2) Formulations for both PO (oral) and IV (intravenous) doses were prepared in saline with 2% Tween 80 and 10% DMSO. Concentrations were adjusted based on the molecular weights of the freebase and salts.
# PO studies: A single dose of 10 mg/kg of each of the three test compounds was orally administered to 21 healthy male CD-1 mice (weight ranged from 18-27 g). The dosing volume was […]. Animals were fasted approximately 16 hours prior to dosing until 4 hours post dosing. Water was available to all animals during the experiment period.
# (§3) Three mice were bled (ca. 1 mL) at each timepoint (0.5, 1, 1.5, 2, 4, 6, and 24 hours post-dose for PO study and 0.083, 0.5, 1, 2, 4, 6, and 24 hours post-dose for IV study) by cardiac puncture and blood was collected into K3EDTA blood collection tubes. Blood samples were centrifuged immediately at 4° C. at 3000 rpm for 10 min. Plasma samples were transferred and stored at −20° C. prior to analysis.
# (§4) The plasma concentrations of 110095 (compound 27 of Table 1, the free base of all three test articles) were determined by LC MS/MS in the positive MRM mode; all doses were normalized to the freebase (110095) concentration. The mean plasma concentration from each time point (n=3) were used to calculate the PK parameters using a non-compartmental model. Pharmacokinetic parameters (Cmax, Tmax, t½, AUC, etc.) were calculated using WinNonlin Software (version 5.3, Pharsight, Sunnyvale Calif. 94086 USA), the results and absolute bioavailability results are presented in Table 6. Table 4 lists mean concentrations (ng/mL) of 110095 in mouse plasma following a single oral dose of 10 mg/kg of 110095-HCl-1007, 110095-03-03 or 110095-02-02 to CD-1 mice, and Table 5 lists mean concentrations (ng/mL) of 110095 in mouse plasma following a single IV dose of 1 mg/kg of 110095-HCl-1007, 110095-03-03 or 110095-02-02 to CD-1 mice. Table 6 lists PK parameters and absolute bioavailability result of 110095-HCl-1007, 110095-03-03 or 110095-02-02 in CD-1 mice.
# [2] = Pharmacokinetics of salt forms, single IV dose; format: in vivo, CD-1 mice; conditions: male, CD-1, mouse
# Experimental: as §1, §2
# IV studies: A single dose of 1 mg/kg of each of the three test articles was IV administered to 21 healthy male CD-1 mice (weight ranged from 18-27 g). The dosing volume was 5 mL/kg. Food and water were available to all animals during the experiment period.
# as §3, §4
# [3] = tested on: K562; experiment: Antiproliferation assay (MTS), K562 cells; format: cell-based; conditions: Homo sapiens, K562, 96 h
# Experimental: (§5) Cells were grown at 37° C. in a humidified atmosphere consisting of 5% CO2 and 95% air.
# (§6) Antiproliferation Assays: Cells were plated in a 96-well culture plate with 2000-8000 cells per well. The compounds were prepared in DMSO and used to treat cells in a final concentration of less than 1% DMSO. Compound treatment started after overnight incubation of cells (T0). […] Compound was added to the plate in triplicate wells, and the plates were then incubated for 96 hours. DMSO (compound diluent) was also included and added to the plate in control wells. Cell viability was then determined by MTS assay using the CellTiter 96® aqueous non-radioactive cell proliferation assay system (Promega, Madison, Wis. 53711 USA). A plate reader (Vmax, Molecular Devices, Sunnyvale Calif. 94089 USA) was used to determine the optical densities, and the results were used to deduce concentration-response curves. […] The results were analyzed using linear regression software (GraphPad Prism 5; GraphPad Software Inc. La Jolla Calif. 92037 USA).
# [4] = tested on: MDA-MB-231; experiment: Antiproliferation assay (MTS), MDA-MB-231 cells; format: cell-based; conditions: Homo sapiens, MDA-MB-231, 96 h
# Experimental: as §5, §6
# [5] = tested on: Hela; experiment: Antiproliferation assay (MTS), HeLa cells; format: cell-based; conditions: Homo sapiens, 96 h
# Experimental: as §5, §6
# [6] = tested on: MDA-MB-468; experiment: Antiproliferation assay (MTS), MDA-MB-468 cells; format: cell-based; conditions: Homo sapiens, MDA-MB-468, 96 h
# Experimental: as §5, §6
# [7] = Table 1, read-out: Antiproliferative IC50 K562
# [8] = read-out: Antiproliferative IC50 MDA-MB-231, Table 1
# [9] = Table 1, read-out: Antiproliferative IC50 Hela
# [10] = Table 1, read-out: Antiproliferative IC50 MDA-MB-468
compound,measurement,setting,value
COCCOc1cnc(Sc2cc(C)c(-c3csc(NC(=O)c4ccncc4)n3)c(C)c2)cn1.Cl [110095-HCl-1007],AUC(0-inf),[1]; PO 10.0 mg/kg,25100 ng·h/mL
same,AUC(0-t),[1]; PO 10.0 mg/kg,25100 ng·h/mL
same,Cmax,[1]; PO 10.0 mg/kg,4060 ng/mL
same,MRT,[1]; PO 10.0 mg/kg,4.11 h
same,Tmax,[1]; PO 10.0 mg/kg,1 h
same,half-life,[1]; PO 10.0 mg/kg,169 min
same,bioavailability,"[1]; PO 10.0 mg/kg vs IV 1.00 mg/kg, read-out: F % (absolute bioavailability)",84%
same,concentration at 0.5 h,"[1]; PO 10 mg/kg, 0.5 h, read-out: mean concentration of 110095 in mouse plasma",1800 ng/mL
same,concentration at 1 h,"[1]; PO 10 mg/kg, 1 h, read-out: mean concentration of 110095 in mouse plasma",4060 ng/mL
same,concentration at […],"[1]; PO 10 mg/kg, 1.5 h, read-out: mean concentration of 110095 in mouse plasma",3660 ng/mL
same,concentration at 2 h,"[1]; PO 10 mg/kg, 2 h, read-out: mean concentration of 110095 in mouse plasma",3560 ng/mL
same,concentration at 4 h,"[1]; PO 10 mg/kg, 4 h, read-out: mean concentration of 110095 in mouse plasma",2170 ng/mL
same,concentration at 6 h,"[1]; PO 10 mg/kg, 6 h, read-out: mean concentration of 110095 in mouse plasma",1140 ng/mL
same,concentration at 24 h,"[1]; PO 10 mg/kg, 24 h, read-out: mean concentration of 110095 in mouse plasma",14.8 ng/mL
same,AUC(0-inf),"[2]; in vivo, iv, 1 mg/kg",3000 ng·h/mL
same,AUC(0-t),"[2]; in vivo, iv, 1 mg/kg",2980 ng·h/mL
same,MRT,"[2]; in vivo, iv, 1 mg/kg",3.3 h
same,half-life,"[2]; in vivo, iv, 1 mg/kg",217 min
same,concentration at […],"[2]; plasma, IV 1 mg/kg, 0.083 h, read-out: mean concentration of 110095 in mouse plasma",870 ng/mL
same,concentration at 0.5 h,"[2]; plasma, IV 1 mg/kg, 0.5 h, read-out: mean concentration of 110095 in mouse plasma",684 ng/mL
same,concentration at 1 h,"[2]; plasma, IV 1 mg/kg, 1 h, read-out: mean concentration of 110095 in mouse plasma",549 ng/mL
same,concentration at 2 h,"[2]; plasma, IV 1 mg/kg, 2 h, read-out: mean concentration of 110095 in mouse plasma",422 ng/mL
same,concentration at 4 h,"[2]; plasma, IV 1 mg/kg, 4 h, read-out: mean concentration of 110095 in mouse plasma",202 ng/mL
same,concentration at 6 h,"[2]; plasma, IV 1 mg/kg, 6 h, read-out: mean concentration of 110095 in mouse plasma",93.2 ng/mL
same,concentration at 24 h,"[2]; plasma, IV 1 mg/kg, 24 h, read-out: mean concentration of 110095 in mouse plasma",3.68 ng/mL
"Cc1cc(Sc2ccc(N(S(C)(=O)=O)S(C)(=O)=O)cc2)cc(C)c1-c1csc(NC(=O)c2ccncc2)n1 [Compound 42, N-(4-(2,6-Dimethyl-4-((4-(N-(methylsulfonyl)methylsulfonamido)phenyl)thio)phenyl)thiazol-2-yl)isonicotinamide]",IC50,[3]; [7],59.3 nM
same,IC50,[4]; [8],76.6 nM
same,IC50,[5]; [9],167 nM
same,IC50,[6]; [10],121 nM
"Cc1cc(Sc2ccc(Br)cc2)cc(C)c1-c1csc(NC(=O)c2ccncc2)n1 [Compound 37, N-{4-(4-(4-Bromophenylsulfanyl)-2,6-dimethylphenyl)thiazol-2-yl}isonicotinamide]",IC50,[3]; [7],62.5 nM
same,IC50,[4]; [8],148 nM
same,IC50,[5]; [9],243 nM
same,IC50,[6]; [10],226 nM
"Cc1cc(C)c(-c2csc(NC(=O)Cc3ccncc3)n2)c(C)c1 [II-93, N-(4-Mesitylthiazol-2-yl)-2-(pyridin-4-yl)acetamide]",IC50,"[3]; Table 2, read-out: Antiproliferative IC50 K562",380 nM
same,IC50,"[4]; read-out: Antiproliferative IC50 MDA-MB-231, Table 2",310 nM
same,IC50,"[5]; Table 2, read-out: Antiproliferative IC50 Hela",620 nM
same,IC50,"[6]; Table 2, read-out: Antiproliferative IC50 MDA-MB-468",300 nM
"COc1cc(F)cc(Cl)c1-c1csc(NC(=O)c2ccncc2)n1 [Compound 14, N-(4-(2-Chloro-4-fluoro-6-methoxyphenyl)thiazol-2-yl)isonicotinamide]",IC50,[3]; [7],3690 nM
same,IC50,[4]; [8],6350 nM
same,IC50,[5]; [9],2990 nM
same,IC50,[6]; [10],9430 nM
"COc1cc(F)c(-c2csc(NC(=O)c3ccncc3)n2)c(Cl)c1 [Compound 13, N-(4-(2-Chloro-6-fluoro-4-methoxyphenyl)thiazol-2-yl)isonicotinamide]",IC50,[3]; [7],247 nM
same,IC50,[4]; [8],386 nM
same,IC50,[5]; [9],375 nM
same,IC50,[6]; [10],1020 nM
"COc1ccc(Oc2cc(C)c(-c3csc(NC(=O)c4ccncc4)n3)c(C)c2)nc1 [Compound 18, N-(4-{4-((5-Methoxypyridin-2-yl)oxy)-2,6-dimethylphenyl}thiazol-2-yl)isonicotinamide]",IC50,[3]; [7],43.7 nM
same,IC50,[4]; [8],40.8 nM
same,IC50,[5]; [9],40.6 nM
same,IC50,[6]; [10],49.4 nM
"Cc1cc(Oc2cnccn2)cc(C)c1-c1csc(NC(=O)c2ccncc2)n1 [Compound 7, N-{4-(2,6-Dimethyl-4-(pyrazin-2-yloxy)phenyl)thiazol-2-yl}isonicotinamide]",IC50,[3]; [7],92 nM
same,IC50,[4]; [8],161 nM
same,IC50,[5]; [9],217 nM
same,IC50,[6]; [10],191 nM
"Cc1cc(Oc2ncccn2)cc(C)c1-c1csc(NC(=O)c2ccncc2)n1 [Compound 6, N-{4-(2,6-Dimethyl-4-(pyrimidin-2-yloxy)phenyl)thiazol-2-yl}isonicotinamide]",IC50,[3]; [7],366 nM
same,IC50,[4]; [8],713 nM
same,IC50,[5]; [9],1020 nM
same,IC50,[6]; [10],661 nM
"Cc1cc(Sc2ccc(N)cc2)cc(C)c1-c1csc(NC(=O)c2ccncc2)n1 [Compound 35, N-{4-(4-(4-Aminophenylsulfanyl)-2,6-dimethylphenyl)thiazol-2-yl}isonicotinamide]",IC50,[3]; [7],26.1 nM
same,IC50,[4]; [8],46.9 nM
same,IC50,[5]; [9],43.8 nM
same,IC50,[6]; [10],95.8 nM
"COc1cc(Cl)c(-c2csc(NC(=O)c3ccncc3)n2)c(Cl)c1 [Compound 10, N-(4-(2,6-Dichloro-4-methoxyphenyl)thiazol-2-yl)isonicotinamide]",IC50,[3]; [7],633 nM
same,IC50,[4]; [8],2330 nM
same,IC50,[5]; [9],4430 nM
same,IC50,[6]; [10],6550 nM
"COc1ccc(Oc2cc(C)c(-c3csc(NC(=O)c4ccnc(F)c4)n3)c(C)c2)cc1 [Compound 49, 2-Fluoro-N-(4-(4-(4-methoxyphenoxy)-2,6-dimethylphenyl)thiazol-2-yl)isonicotinamide]",IC50,[3]; [7],16.3 nM
same,IC50,[4]; [8],20 nM
same,IC50,[5]; [9],42.7 nM
same,IC50,[6]; [10],40 nM
"COc1ccc(Oc2cc(C)c(-c3csc(NC(=O)c4ccncc4)n3)c(C)c2)cc1 [Compound 48, N-(4-(4-(4-Methoxyphenoxy)-2,6-dimethylphenyl)thiazol-2-yl)isonicotinamide]",IC50,[3]; [7],34.9 nM
same,IC50,[4]; [8],32 nM
same,IC50,[5]; [9],48.6 nM
same,IC50,[6]; [10],37 nM
"CC(=O)Nc1ccc(Sc2cc(C)c(-c3csc(NC(=O)c4ccncc4)n3)c(C)c2)cc1 [Compound 36, N-{4-(4-(4-Acetylaminophenylsulfanyl)-2,6-dimethylphenyl)thiazol-2-yl}isonicotinamide]",IC50,[3]; [7],18.9 nM
same,IC50,[4]; [8],44.3 nM
same,IC50,[5]; [9],24.5 nM
same,IC50,[6]; [10],62.4 nM
"Cc1cc(Sc2cccc(Cl)c2)cc(C)c1-c1csc(NC(=O)c2ccncc2)n1 [Compound 38, N-{4-(4-(3-Chlorophenylsulfanyl)-2,6-dimethylphenyl)thiazol-2-yl}isonicotinamide]",IC50,[3]; [7],128 nM
same,IC50,[4]; [8],197 nM
same,IC50,[5]; [9],500 nM
same,IC50,[6]; [10],352 nM
"COc1cnc(Oc2cc(C)c(-c3csc(NC(=O)c4ccncc4)n3)c(C)c2)nc1 [Compound 8, N-{4-(4-(5-Methoxypyrimidin-2-yloxy)-2,6-dimethylphenyl)thiazol-2-yl}isonicotinamide]",IC50,[3]; [7],71.8 nM
same,IC50,[4]; [8],121 nM
same,IC50,[5]; [9],130 nM
same,IC50,[6]; [10],85.4 nM
